pKi: −log10 of the molar value.
Biological target: CDK2 (human) (UniProt P24941)
Assay: Enzyme Assay

pKi, > 6.00:
CN1CCN(c2cccc3c(Nc4n[nH]c5c(F)cccc45)nc(-c4ccc5[nH][nH]c(=O)c5c4C(F)(F)F)nc23)CC1
O=c1[nH][nH]c2ccc(C3CCC(Nc4nccnn4)C3)cc12 (centres undefined)
O=c1[nH][nH]c2cc(Oc3nc(Nc4cc(C5CC5)[nH]n4)cc(N4CCOCC4)n3)ccc12
Cn1cnc(NC(CCCc2ccc3c(=O)[nH][nH]c3c2)c2ccccc2)c1 (centres undefined)
Cc1cc(Nc2nc(Nc3ccc4c(=O)[nH][nH]c4c3)nc3c2CCCC3)n[nH]1
O=c1[nH][nH]c2ccc(-c3nc(Nc4n[nH]c5ccccc45)cc(Oc4ccccc4)n3)c(C(F)(F)F)c12
O=C(CCSc1ccc2c(=O)[nH][nH]c2c1)Nc1nccnn1
O=c1[nH][nH]c2cc(OCCCNc3nccnn3)ccc12
O=c1[nH][nH]c2cc(Cl)c(-c3nc(Nc4n[nH]c5ccc(F)cc45)c4cnoc4n3)cc12
Cc1cnc(NC2CCCC2CNc2ccc3c(=O)[nH][nH]c3c2)s1 (centres undefined)
O=c1[nH][nH]c2cc(SC(CCNc3ccccn3)Cc3ccccc3)ccc12 (centres undefined)
Cc1cc(Nc2cc(COc3ccc4c(=O)[nH][nH]c4c3)nc3c2CCCCC3)n[nH]1
COc1cccc2c(Nc3cc(C)[nH]n3)nc(Sc3ccc4c(=O)[nH][nH]c4c3)nc12
Cc1cc(Nc2nc(-c3ccc4[nH][nH]c(=O)c4c3)nc3cnccc23)n[nH]1
CC(C)c1cc2[nH][nH]c(=O)c2cc1-c1nc(Nc2n[nH]c3ccccc23)c2ccccc2n1
Cn1cnc(NC2CCCC(Sc3ccc4c(=O)[nH][nH]c4c3)C2)c1 (centres undefined)
COCCNc1cc(Nc2cc(C)[nH]n2)nc(OCc2ccc3c(=O)[nH][nH]c3c2)n1
O=c1[nH][nH]c2cc(OCCONc3nccnn3)ccc12
CC(=O)N1CCC(c2cc(Nc3n[nH]c4ccccc34)nc(-c3ccc4[nH][nH]c(=O)c4c3C(F)(F)F)n2)CC1
O=c1[nH][nH]c2ccc(-c3nc4c(c(Nc5n[nH]c6ccccc56)n3)CCCC4)c(C(F)(F)F)c12
O=c1[nH][nH]c2ccc(-c3nc4c(c(Nc5n[nH]c6c(F)cccc56)n3)CCCCC4)c(Cl)c12
O=c1[nH][nH]c2cc(Cl)c(-c3cc4c(c(Nc5n[nH]c6ccccc56)n3)CCCC4)cc12
O=c1[nH][nH]c2cc(Nc3cc(Nc4cc(C5CC5)[nH]n4)ncn3)ccc12
O=c1[nH][nH]c2ccc(-c3nc4c(c(Nc5n[nH]c6ccc(F)cc56)n3)CCNC4)c(C(F)(F)F)c12
N#Cc1c(-c2ncnc(Nc3n[nH]c4c3CCCC4)n2)ccc2[nH][nH]c(=O)c12
NCCOc1cc(Nc2n[nH]c3ccccc23)nc(-c2cc3c(=O)[nH][nH]c3cc2C(F)(F)F)c1
Cc1cc(Nc2nc(-c3ccc4[nH][nH]c(=O)c4c3)cc3ccccc23)n[nH]1
O=C(CC(=O)Nc1nccnn1)Cc1ccc2c(=O)[nH][nH]c2c1
Cn1cnc(NC2CCC(Nc3ccc4c(=O)[nH][nH]c4c3)C2)c1 (centres undefined)
Cc1cnc(NC2CCCC(SCc3ccc4c(=O)[nH][nH]c4c3)C2)s1 (centres undefined)
Cc1cnc(NCCCCc2ccc3c(=O)[nH][nH]c3c2)s1
Cc1cc(Nc2cc(-c3ccccc3)nc(Nc3ccc4c(=O)[nH][nH]c4c3)n2)n[nH]1
O=C(CCOc1ccc2c(=O)[nH][nH]c2c1)Nc1ccccn1
O=c1[nH][nH]c2cc(SC3CCCC(Nc4ccccn4)C3)ccc12 (centres undefined)
